Laboratory results as given in patent publication US12539269B2, “Composition for blocking ultraviolet rays and fine dust, and preparation method thereof” (SANG HWANG MI-IN CO., LTD, priority 2020, dated 2026).

Test system: HaCaT
Assay: Hyaluronic acid production amount (ELISA kit) in BP-stimulated keratinocytes
Format: cell-based
Procedure: In order to confirm whether the extract of a black hoof mushroom, a shiitake mushroom, and an oyster mushroom increased the hyaluronic acid (HA) production amount in HaCaT which is a keratinocyte, measurement was performed with an ELISA kit, and the results are shown in Table 7. In Table 7, N (normal) is a BP (benzo[α]pyrene)-unstimulated group, and C (control) is a BP (benzo[α]pyrene)-stimulated group.

## O=C(O[C@@H]1Cc2c(O)cc(O)cc2O[C@@H]1c1cc(O)c(O)c(O)c1)c1cc(O)c(O)c(O)c1 [EGCG]
10 μg/mL, versus control C 99.3 ng/mL
  Increase of hyaluronic acid production versus control group (increase rate): 6.3 ng/mL
BP (benzo[α]pyrene)-stimulated, EGCG 10 μg/mL, N 198, C 99.3
  Hyaluronic acid production amount: 105.6 ng/mL
